According to US12486244B2, “Preparation of semicarbazide-sensitive amine oxidase inhibitor and use thereof” (ENNOVABIO (ZHEJIANG) PHARMACEUTICALS CO., LTD., priority 2020, dated 2025):

Experiments:
Format in all cases: biochemical
[1] = molecular target: T1, Recombinant human AOC1/DAO protein (Homo sapiens, UniProt P19801); test: Inhibitory activity on AOC1 (Amplex UltraRed/HRP, putrescine substrate); details: compound 100 μM to 5 nM
T1 construct: purchased R&D systems 8298-AO
T1 sequence (P19801 20-751): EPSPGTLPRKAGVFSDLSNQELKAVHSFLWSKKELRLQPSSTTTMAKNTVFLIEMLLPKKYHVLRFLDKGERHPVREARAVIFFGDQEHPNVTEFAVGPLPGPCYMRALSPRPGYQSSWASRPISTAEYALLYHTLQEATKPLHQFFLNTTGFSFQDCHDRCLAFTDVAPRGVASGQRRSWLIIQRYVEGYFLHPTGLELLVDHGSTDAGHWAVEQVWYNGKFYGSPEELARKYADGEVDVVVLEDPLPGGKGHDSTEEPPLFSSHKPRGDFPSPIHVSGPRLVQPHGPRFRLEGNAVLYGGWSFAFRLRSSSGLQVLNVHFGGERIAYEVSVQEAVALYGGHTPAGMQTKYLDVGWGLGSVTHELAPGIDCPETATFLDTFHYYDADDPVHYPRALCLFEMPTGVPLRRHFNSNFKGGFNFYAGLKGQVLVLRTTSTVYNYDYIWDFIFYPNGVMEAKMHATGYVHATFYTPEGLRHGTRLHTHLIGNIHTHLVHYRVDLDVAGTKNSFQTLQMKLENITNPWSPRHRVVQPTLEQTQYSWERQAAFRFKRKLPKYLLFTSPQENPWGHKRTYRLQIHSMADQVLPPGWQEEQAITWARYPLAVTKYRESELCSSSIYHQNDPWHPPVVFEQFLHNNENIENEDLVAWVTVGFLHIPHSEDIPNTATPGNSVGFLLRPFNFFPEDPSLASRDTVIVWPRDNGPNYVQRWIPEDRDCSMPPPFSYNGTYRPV
Method: Recombinant human AOC1/DAO protein was purchased from R&D systems (Cat: 8298-AO). Amplex UltraRed was purchased from Thermo scientific (Cat: A36006). HRP (Cat: P8250) and Putrescine (Cat: V900377) were purchased from Sigma. Enzyme reaction buffer (50 mM HEPES, 120 mM NaCl, 5 mM KCl, 2 mM CaCl2, 1.4 mM MgCl2, 0.001% Tween-20, pH7.4) was prepared. Test compound was dissolved in DMSO and serially diluted by 3-fold. The final concentration of test compound in 10 μL reaction system was 100 μM to 5 nM when AOC1 activity was detected. The content of DMSO in detection reaction system was 1%. After the DMSO solution of test compound was diluted in the enzyme reaction buffer at a volume ratio of 1:25, 10 μL of mixture was added to each well of detection plate. 4× substrate mixture (containing 400 μM Putrescine, 4U/mL HRP, 4 μM Amplex UltraRed) was prepared in the enzyme reaction buffer, 10 μL of which was added to each well. 20 μL of AOC1 protein diluted in enzyme reaction buffer was added to each well and the final concentration was 0.4 nM in 40 μL reaction system. Synergy Neo 2 was used to read the plate for detection. […] The enzyme activity was calculated based on the increased signal of each well from the 10th minute to the 30th minute. […]
(§1) Signalpositive was signal of positive control wells without test compounds added. […] IC50 value was calculated by using 4 parameters curve fitting.

[2] = molecular target: T2, Recombinant human MAO-A (Homo sapiens, UniProt P21397); test: Inhibitory activity on MAO-A (MAO-Glo assay); details: recombinant human MAO-A 70 nM; compound 100 μM to 5 nM
T2 construct: purchased Sigma M7316
T2 sequence (P21397 1-527): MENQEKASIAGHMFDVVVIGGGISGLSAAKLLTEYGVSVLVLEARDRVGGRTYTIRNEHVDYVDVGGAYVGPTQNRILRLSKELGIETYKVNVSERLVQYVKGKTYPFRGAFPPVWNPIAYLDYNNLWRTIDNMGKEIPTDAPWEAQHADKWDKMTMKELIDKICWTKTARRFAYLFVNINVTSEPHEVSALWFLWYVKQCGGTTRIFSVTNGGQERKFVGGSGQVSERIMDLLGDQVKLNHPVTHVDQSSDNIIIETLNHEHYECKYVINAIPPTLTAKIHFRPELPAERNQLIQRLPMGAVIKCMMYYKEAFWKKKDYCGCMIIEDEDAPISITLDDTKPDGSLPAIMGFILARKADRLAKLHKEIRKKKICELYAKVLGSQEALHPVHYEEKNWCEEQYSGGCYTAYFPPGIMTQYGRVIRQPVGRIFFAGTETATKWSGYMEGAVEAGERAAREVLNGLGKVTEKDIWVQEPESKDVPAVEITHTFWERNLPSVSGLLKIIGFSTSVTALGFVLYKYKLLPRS
Method: (§2) This assay was used to evaluate the in vitro inhibitory activity of the compounds against SSAO/VAP-1 of different species. Recombinant human SSAO protein, mouse SSAO protein or rat SSAO protein (provided by Eli Lilly) were used. The enzyme activity detection kit, MAO-Glo Assay kit (V1402) was purchased from Promega. Enzyme reaction buffer (50 mM HEPES, 120 mM NaCl, 5 mM KCl, 2 mM CaCl2, 1.4 mM MgCl2, 0.001% Tween-20, pH 7.4) was prepared. The test compounds were dissolved in DMSO and serially diluted by 3-fold. The final concentration of test compound in a 10 μL reaction system was 1 μM to 0.05 nM when SSAO activity was detected. The content of DMSO in the detection reaction system was 1%. After the DMSO solution of test compounds was diluted in the enzyme reaction buffer at a volume ratio of 1:25, 2.5 μL of the solution was added to each well of detection plate with two replicates for each concentration. […] The reaction solution was incubated for 20 minutes at room temperature, and the plate was read with Synergy Neo 2 for detection. […]
as §1
(§3) Recombinant human MAO-A and MAO-B protein was purchased from Sigma (M7316, M7441). […] The final concentration of test compound in 10 μL reaction system was 100 μM to 5 nM when MAO-A and MAO-B activity were detected. […]

[3] = molecular target: T3, Recombinant human MAO-B (Homo sapiens, UniProt P27338); test: Inhibitory activity on MAO-B (MAO-Glo assay); details: recombinant human MAO-B 300 nM; compound 100 μM to 5 nM
T3 construct: purchased Sigma M7441
T3 sequence (P27338 1-520): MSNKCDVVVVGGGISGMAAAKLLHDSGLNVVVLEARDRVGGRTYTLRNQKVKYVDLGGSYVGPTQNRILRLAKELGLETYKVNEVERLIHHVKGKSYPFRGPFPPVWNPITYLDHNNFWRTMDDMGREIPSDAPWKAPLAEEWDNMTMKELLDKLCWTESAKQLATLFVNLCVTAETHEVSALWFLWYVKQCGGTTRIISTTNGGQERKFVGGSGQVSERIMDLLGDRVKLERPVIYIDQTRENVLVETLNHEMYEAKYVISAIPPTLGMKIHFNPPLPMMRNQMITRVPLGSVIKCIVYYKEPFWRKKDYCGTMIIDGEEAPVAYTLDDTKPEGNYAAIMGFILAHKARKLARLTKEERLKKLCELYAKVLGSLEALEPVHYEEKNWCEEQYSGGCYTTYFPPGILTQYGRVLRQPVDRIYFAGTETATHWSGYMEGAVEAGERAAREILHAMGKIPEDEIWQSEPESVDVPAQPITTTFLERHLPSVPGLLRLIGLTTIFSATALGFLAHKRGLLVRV
Method: as §2, §1, §3

[4] = molecular target: T4, Recombinant human AOC2 protein (Homo sapiens, UniProt O75106); test: Inhibitory activity on AOC2 (MAO-Glo assay); details: compound 100 μM to 5 nM
T4 construct: Eli Lilly (provided, not purchased)
T4 sequence (O75106 1-756): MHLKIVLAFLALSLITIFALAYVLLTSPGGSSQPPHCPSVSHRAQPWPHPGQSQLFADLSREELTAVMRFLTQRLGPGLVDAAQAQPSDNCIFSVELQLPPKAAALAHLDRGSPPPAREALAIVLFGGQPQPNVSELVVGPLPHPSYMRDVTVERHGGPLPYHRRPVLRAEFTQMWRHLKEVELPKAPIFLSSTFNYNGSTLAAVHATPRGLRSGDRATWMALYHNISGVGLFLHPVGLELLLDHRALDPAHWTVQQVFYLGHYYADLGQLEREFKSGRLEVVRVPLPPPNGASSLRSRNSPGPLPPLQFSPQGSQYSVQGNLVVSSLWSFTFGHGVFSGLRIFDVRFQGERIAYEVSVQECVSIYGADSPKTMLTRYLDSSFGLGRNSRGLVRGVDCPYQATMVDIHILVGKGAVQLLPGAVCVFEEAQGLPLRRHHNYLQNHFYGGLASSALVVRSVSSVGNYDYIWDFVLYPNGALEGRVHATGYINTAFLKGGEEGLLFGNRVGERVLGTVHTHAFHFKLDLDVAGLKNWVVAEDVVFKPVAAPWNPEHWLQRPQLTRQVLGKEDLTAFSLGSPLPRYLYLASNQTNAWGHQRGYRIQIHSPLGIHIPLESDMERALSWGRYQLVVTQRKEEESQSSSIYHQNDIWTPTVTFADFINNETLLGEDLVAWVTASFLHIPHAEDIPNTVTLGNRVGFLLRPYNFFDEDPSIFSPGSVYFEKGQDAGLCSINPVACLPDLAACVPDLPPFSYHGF
Method: as §2, with “1%.” for “1%. After the DMSO solution of test compounds was diluted in the enzyme reaction buffer at a volume ratio of 1:25, 2.5 μL of the solution was added to each well of detection plate with two replicates for each concentration.”
as §1
Recombinant human AOC2 protein (provided by Eli Lilly). […] The final concentration of test compound in 10 μL reaction system was 100 μM to 5 nM when AOC2 activity was detected, while other reaction conditions were the same as those in Biological Test Example 1. […]

[5] = molecular target: T5, Recombinant human SSAO protein (Homo sapiens, UniProt Q16853); test: In vitro inhibitory activity on SSAO/VAP-1 (MAO-Glo assay); details: compound 1 μM to 0.05 nM
T5 construct: Eli Lilly (provided, not purchased)
T5 sequence (Q16853 1-763): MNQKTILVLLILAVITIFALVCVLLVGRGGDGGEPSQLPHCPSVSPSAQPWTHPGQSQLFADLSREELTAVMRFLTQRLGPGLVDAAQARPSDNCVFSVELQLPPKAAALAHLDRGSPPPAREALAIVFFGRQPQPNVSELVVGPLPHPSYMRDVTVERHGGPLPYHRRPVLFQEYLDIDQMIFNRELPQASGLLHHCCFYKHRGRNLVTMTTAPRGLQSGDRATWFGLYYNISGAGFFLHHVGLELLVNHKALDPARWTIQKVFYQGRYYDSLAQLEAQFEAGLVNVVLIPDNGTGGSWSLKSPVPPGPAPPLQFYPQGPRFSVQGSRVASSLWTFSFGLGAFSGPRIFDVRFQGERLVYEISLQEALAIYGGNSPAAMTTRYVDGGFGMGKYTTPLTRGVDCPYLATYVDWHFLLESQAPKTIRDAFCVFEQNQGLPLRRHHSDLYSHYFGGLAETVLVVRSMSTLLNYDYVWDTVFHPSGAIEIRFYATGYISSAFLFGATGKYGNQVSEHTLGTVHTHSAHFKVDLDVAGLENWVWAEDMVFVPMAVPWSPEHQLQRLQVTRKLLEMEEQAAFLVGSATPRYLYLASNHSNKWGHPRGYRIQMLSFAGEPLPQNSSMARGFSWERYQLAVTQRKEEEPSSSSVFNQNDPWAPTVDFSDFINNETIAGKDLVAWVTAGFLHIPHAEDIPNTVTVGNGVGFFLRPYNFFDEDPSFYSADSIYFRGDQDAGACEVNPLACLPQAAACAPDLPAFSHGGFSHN
Method: as §2, with “concentration. 5 μL of SSAO protein diluted in the enzyme reaction buffer was added to each well, the final concentration of which was 10 nM to 80 nM in 10 μL reaction system.” for “concentration.”
as §1

IC50 [1] [µM] | IC50 [2] [µM] | IC50 [3] [µM] | IC50 [4] [µM] | IC50 [5] [µM] | SMILES
> 10 | 10 to 100 | > 20 | > 1 | < 0.01 | CC1(O)CCN(c2ncc(OC/C(=C/F)CN)cn2)CC1 [Example 1, (E)-1-(5-((2-(Aminomethyl)-3-fluoroallyl)oxy)pyrimidin-2-yl)-4-methylpiperidin-4-ol]
0.1 to 10 | > 100 | > 20 | > 1 | < 0.01 | COCC1(O)CCN(c2ncc(OC/C(=C/F)CN)cn2)CC1 [Example 2, (E)-1-(5-((2-(aminomethyl)-3-fluoroallyl)oxy)pyrimidin-2-yl)-4-(methoxymethyl)piperidin-4-ol]
